# Measured values from patent US10870638B2, “Pyridazinone compound or its salt, and herbicide containing it” (ISHIHARA SANGYO KAISHA, LTD., priority 2016, dated 2020).
# How the values were obtained:
# Type in all cases: in vivo
# Conditions in all cases: active ingredient amount 31 g/ha, 14th day after application
# [1] = test system: crabgrass (Digitaris sanquinalis L.); assay: Test Example 2: soil application on the day after sowing, growth inhibition rate on 14th day
# Method in brief: (§1)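 Herbicidal effect is assessed on pot-grown plants after a soil spray applied the day after sowing at prescribed active ingredient rates. Scoring occurs visually at day 14 as growth inhibition (%).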
# [2] = test system: wheat (Triticum aestivum L.); assay: as above
# Method in brief: as §1
# [3] = test system: green foxtail (Setaria viridis L.); assay: as above
# Method in brief: as §1
# [4] = test system: redroot pigweed (Amaranthus retroflexus L.); assay: as above
# Method in brief: as §1
# [5] = test system: soybean (Glycine max Merr.); assay: as above
# Method in brief: as §1
# [6] = test system: barnyardgrass (Echinochloa crus-qalli L.); assay: as above
# Method in brief: as §1
# corn (Zea mays L.) [7] = assay: as above
# Method in brief: as §1
# [8] = test system: prickly sida (Sida spinosa L.); assay: as above
# Method in brief: as §1
# [9] = test system: velvetleaf (Abutilon theophrasti MEDIC.); assay: as above
# Method in brief: as §1
# rice (Oryza sativa L.) [10] = assay: as above
# Method in brief: as §1
# [11] = test system: italian ryegrass (Lolium multiflorum Lam.); assay: Test Example 1: foliar treatment, growth inhibition rate on 14th day
# Method in brief: (§2)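 Visual 0–100% inhibition scoring (100 = complete kill) at 14 days after foliar treatment of soil-grown seedlings at species-specific leaf stages, with the compound sprayed as a wettable powder or emulsifiable concentrate dilution.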
# [12] = test system: wild oat (Avena fatua L.); assay: as above
# Method in brief: (§3)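 Using a small sprayer, formulated compound in water (0.1 vol % surfactant, 1,000 L/ha) was applied to seedlings grown from seed in upland soil. Fourteen days on, growth state was observed and expressed as percent inhibition from 0 to 100.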
# [13] = test system: crabgrass (Digitaria sanquinalis L.); assay: as above
# Method in brief: as §2
# [14] = test system: wheat (Triticum aestivum L.); assay: as above
# Method in brief: as §2
# [15] = test system: green foxtail (Setaria viridis L.); assay: as above
# Method in brief: as §3
# [16] = test system: redroot pigweed (Amaranthus retroflexus L.); assay: as above
# Method in brief: as §2
# [17] = test system: soybean (Glycine max Merr.); assay: as above
# Method in brief: as §3
# [18] = test system: barnyardgrass (Echinochloa crus-qalli L.); assay: as above
# Method in brief: as §2
# corn (Zea mays L.) [19] = assay: as above
# Method in brief: as §2
# rice (Oryza sativa L.) [20] = assay: as above
# Method in brief: as §3
# [21] = visual, 0 = non-treated, 100 = complete kill
SMILES,Growth inhibition rate (%) Crabgrass [1] [%],Growth inhibition rate (%) Wheat [2] [%],Growth inhibition rate (%) Green foxtail [3] [%],Growth inhibition rate (%) Redroot pigweed [4] [%],Growth inhibition rate (%) Soybean [5] [%],Growth inhibition rate (%) Barnyardgrass [6] [%],Growth inhibition rate (%) Corn (corn (Zea mays L.) [7]) [%],Growth inhibition rate (%) Prickly sida [8] [%],Growth inhibition rate (%) Velvetleaf [9] [%],Growth inhibition rate (%) Rice (rice (Oryza sativa L.) [10]) [%],"Growth inhibition rate (%) Italian ryegrass [11, 21] [%]","Growth inhibition rate (%) Wild oat [12, 21] [%]","Growth inhibition rate (%) Crabgrass [13, 21] [%]","Growth inhibition rate (%) Wheat [14, 21] [%]","Growth inhibition rate (%) Green foxtail [15, 21] [%]","Growth inhibition rate (%) Redroot pigweed [16, 21] [%]","Growth inhibition rate (%) Soybean [17, 21] [%]","Growth inhibition rate (%) Barnyardgrass [18, 21] [%]",Growth inhibition rate (%) Corn (corn (Zea mays L.) [19]; [21]) [%],Growth inhibition rate (%) Rice (rice (Oryza sativa L.) [20]; [21]) [%],further results
CCOC(=O)C(=O)Oc1c(C)nn(C)c(=O)c1-c1cc(Oc2cnc3cc(Cl)ccc3n2)ccc1C [Compound 3-79],95,0,100,0,0,100,0,0,0,0,99,98,98,93,100,0,30,100,50,99,
C=CC(=O)Oc1c(C)nn(C)c(=O)c1-c1cc(Oc2cnc3cc(Cl)ccc3n2)ccc1C [Compound 3-49],20,10,85,0,0,95,0,0,0,0,100,98,100,99,100,0,20,99,45,50,
CCn1nc(C)c(OC(C)=O)c(-c2cc(Oc3cnc4cc(Cl)ccc4n3)ccc2C)c1=O [Compound 3-97],93,20,99,0,0,95,0,0,0,20,99,100,100,95,100,0,0,100,15,75,
CCc1ccc(Oc2nc3cc(Cl)ccc3o2)cc1-c1c(O)c(C)nn(C)c1=O [Compound 2-161],0,0,0,0,0,98,0,0,0,0,,,,,,,,,,,Growth inhibition rate (%) Italian ryegrass [11]: 99%; Growth inhibition rate (%) Wild oat [12]: 99%; Growth inhibition rate (%) Crabgrass [13]: 83%; Growth inhibition rate (%) Wheat [14]: 85%; Growth inhibition rate (%) Green foxtail [15]: 100%; Growth inhibition rate (%) Redroot pigweed [16]: 40%; Growth inhibition rate (%) Soybean [17]: 0%; Growth inhibition rate (%) Barnyardgrass [18]: 100%; Growth inhibition rate (%) Corn (corn (Zea mays L.) [19]): 90%; Growth inhibition rate (%) Rice (rice (Oryza sativa L.) [20]): 99%
